According to patent US20240050428A1 (Cullgen (Shanghai), Inc., priority 2020, published 2024):
Where two headings read alike, the source gives them in different places.

What was measured:
MOLM-13 cells = experiment: Cell viability assay (CellTiter-Glo) in MOLM-13 cells, alone or with gilteritinib; format: cell-based; details: Homo sapiens, MOLM-13 cells, three days, CellTiter-Glo
MV4;11 cells = experiment: Cell viability assay (CellTiter-Glo) in MV4;11 cells, alone or with gilteritinib; format: cell-based; details: Homo sapiens, MV4;11 cells, three days, CellTiter-Glo, read-out: MV4
[1] = 72 h, compound alone (without gilteritinib), read-out: MOLM-13 IC50
[2] = 72 h, compound with gilteritinib 20 nM, read-out: MOLM-13 IC50 gilteritinib
[3] = 72 h, compound alone (without gilteritinib), 11 IC50
[4] = 72 h, compound with gilteritinib 10 nM, 11 IC50 gilteritinib
[5] = MOLM-13, 72 h, compound alone (without gilteritinib), read-out: MOLM-13 IC50
[6] = MOLM-13, 72 h, compound with gilteritinib 20 nM, read-out: MOLM-13 IC50 gilteritinib
[7] = MV4-11, 72 h, compound alone (without gilteritinib), 11 IC50
[8] = MV4-11, 72 h, compound with gilteritinib 10 nM, 11 IC50 gilteritinib

Compound: O=C1CCC(N2C(=O)c3ccc(NCCCCCCn4cc(-c5ccccc5)cn4)cc3C2=O)C(=O)N1 (stereo not drawn) [GS-496, 2-(2,6-dioxopiperidin-3-yl)-5-((6-(4-phenyl-1H-pyrazol-1-yl)hexyl)amino)isoindoline-1,3-dione]
- IC50 (MOLM-13 cells; [1]): 100 to 1000 nM
- IC50 (MOLM-13 cells; [2]): 10 to 100 nM
- IC50 (MV4;11 cells; [3]): 100 to 1000 nM
- IC50 (MV4;11 cells; [4]): 10 to 100 nM

Compound: Cc1cccc(-c2cnn(CCCCCCNc3ccc4c(c3)C(=O)N(C3CCC(=O)NC3=O)C4=O)c2)c1 (stereo not drawn) [GS-497, 2-(2,6-dioxopiperidin-3-yl)-5-((6-(4-(m-tolyl)-1H-pyrazol-1-yl)hexyl)amino)isoindoline-1,3-dione]
- IC50 (MOLM-13 cells; [5]): 100 to 1000 nM
- IC50 (MOLM-13 cells; [6]): < 10 nM
- IC50 (MV4;11 cells; [7]): 10 to 100 nM
- IC50 (MV4;11 cells; [8]): < 10 nM

Compound: Cc1cccc(-c2cnn(CCCCCCNc3ccc4c(c3)C(=O)N(C3CCC(=O)NC3=O)C4=O)c2)n1 (stereo not drawn) [GS-498, 2-(2,6-dioxopiperidin-3-yl)-5-((6-(4-(6-methylpyridin-2-yl)-1H-pyrazol-1-yl)hexyl)amino)isoindoline-1,3-dione]
- IC50 (MOLM-13 cells; [5]): 100 to 1000 nM
- IC50 (MOLM-13 cells; [6]): 10 to 100 nM
- IC50 (MV4;11 cells; [7]): 100 to 1000 nM
- IC50 (MV4;11 cells; [8]): 10 to 100 nM

Compound: Cc1cncc(-c2cnn(CCCCCCNc3ccc4c(c3)C(=O)N(C3CCC(=O)NC3=O)C4=O)c2)c1 (stereo not drawn) [GS-499, 2-(2,6-dioxopiperidin-3-yl)-5-((6-(4-(5-methylpyridin-3-yl)-1H-pyrazol-1-yl)hexyl)amino)isoindoline-1,3-dione]
- IC50 (MOLM-13 cells; [5]): > 1000 nM
- IC50 (MOLM-13 cells; [6]): 100 to 1000 nM
- IC50 (MV4;11 cells; [7]): > 1000 nM
- IC50 (MV4;11 cells; [8]): 100 to 1000 nM

Compound: O=C1CCC(N2Cc3cc(NC(=O)C(F)(F)c4cccc(N5CCC(n6cc(-c7cnc8ccccc8n7)cn6)CC5)c4)ccc3C2=O)C(=O)N1 (stereo not drawn) [GS-500, N-(2-(2,6-dioxopiperidin-3-yl)-1-oxoisoindolin-5-yl)-2,2-difluoro-2-(3-(4-(4-(quinoxalin-2-yl)-1H-pyrazol-1-yl)piperidin-1-yl)phenyl)acetamide]
- IC50 (MOLM-13 cells; [5]): < 10 nM
- IC50 (MOLM-13 cells; [6]): < 10 nM
- IC50 (MV4;11 cells; [7]): < 10 nM
- IC50 (MV4;11 cells; [8]): < 10 nM

Compound: O=C1CCC(N2Cc3cc(NC(=O)Cc4cccc(N5CCC(c6ccccc6)CC5)c4)ccc3C2=O)C(=O)N1 (stereo not drawn) [GS-501, N-(2-(2,6-Dioxopiperidin-3-yl)-1-oxoisoindolin-5-yl)-2-(3-(4-phenylpiperidin-1-yl)phenyl)acetamide]
- IC50 (MOLM-13 cells; [1]): < 10 nM
- IC50 (MOLM-13 cells; [2]): < 10 nM
- IC50 (MV4;11 cells; [3]): < 10 nM
- IC50 (MV4;11 cells; [4]): < 10 nM

Compound: Cc1nc2ccccc2nc1-c1cnn(CCCCCCNc2ccc3c(c2)C(=O)N(C2CCC(=O)NC2=O)C3=O)c1 (stereo not drawn) [GS-502, 2-(2,6-Dioxopiperidin-3-yl)-5-((6-(4-(3-methylquinoxalin-2-yl)-1H-pyrazol-1-yl)hexyl)amino)isoindoline-1,3-dionee]
- IC50 (MOLM-13 cells; [5]): 100 to 1000 nM
- IC50 (MOLM-13 cells; [6]): 10 to 100 nM
- IC50 (MV4;11 cells; [7]): 100 to 1000 nM
- IC50 (MV4;11 cells; [8]): 10 to 100 nM

Compound: O=C1CCC(N2C(=O)c3ccc(NCCCCCCn4cc(-c5cnc6ccc(Br)cc6n5)cn4)cc3C2=O)C(=O)N1 (stereo not drawn) [GS-503, 5-((6-(4-(7-Bromoquinoxalin-2-yl)-1H-pyrazol-1-yl)hexyl)amino)-2-(2,6-dioxopiperidin-3-yl)isoindoline-1,3-dione]
- IC50 (MOLM-13 cells; [5]): 100 to 1000 nM
- IC50 (MOLM-13 cells; [6]): 10 to 100 nM
- IC50 (MV4;11 cells; [7]): 10 to 100 nM
- IC50 (MV4;11 cells; [8]): < 10 nM

Compound: O=C1CCC(N2C(=O)c3ccc(NCCCc4cccc(N5CCC(c6ccccc6)CC5)c4)cc3C2=O)C(=O)N1 (stereo not drawn) [GS-504, 2-(2,6-Dioxopiperidin-3-yl)-5-((3-(3-(4-phenylpiperidin-1-yl)phenyl)propyl)amino)isoindoline-1,3-dione]
- IC50 (MOLM-13 cells; [1]): 100 to 1000 nM
- IC50 (MOLM-13 cells; [2]): 10 to 100 nM
- IC50 (MV4;11 cells; [3]): 100 to 1000 nM
- IC50 (MV4;11 cells; [4]): 10 to 100 nM

Compound: O=C1CCC(N2C(=O)c3ccc(NCCCc4cc(F)cc(N5CCC(c6ccccc6)CC5)c4)cc3C2=O)C(=O)N1 (stereo not drawn) [GS-505, 2-(2,6-Dioxopiperidin-3-yl)-5-((3-(3-fluoro-5-(4-phenylpiperidin-1-yl)phenyl)propyl)amino)isoindoline-1,3-dione]
- IC50 (MOLM-13 cells; [1]): 10 to 100 nM
- IC50 (MOLM-13 cells; [2]): < 10 nM
- IC50 (MV4;11 cells; [3]): 10 to 100 nM
- IC50 (MV4;11 cells; [4]): 10 to 100 nM

Compound: O=C1CCC(N2C(=O)c3ccc(NCCCc4ccc(F)c(N5CCC(c6ccccc6)CC5)c4)cc3C2=O)C(=O)N1 (stereo not drawn) [GS-506, 2-(2,6-Dioxopiperidin-3-yl)-5-((3-(4-fluoro-3-(4-phenylpiperidin-1-yl)phenyl)propyl)amino)isoindoline-1,3-dione]
- IC50 (MOLM-13 cells; [1]): > 1000 nM
- IC50 (MOLM-13 cells; [2]): 100 to 1000 nM
- IC50 (MV4;11 cells; [3]): > 1000 nM
- IC50 (MV4;11 cells; [4]): > 1000 nM

Compound: O=C1CCC(N2C(=O)c3ccc(NCCCc4cccc(N5CCC(c6ccccc6)CC5)c4F)cc3C2=O)C(=O)N1 (stereo not drawn) [GS-507, 2-(2,6-Dioxopiperidin-3-yl)-5-((3-(2-fluoro-3-(4-phenylpiperidin-1-yl)phenyl)propyl)amino)isoindoline-1,3-dione]
- IC50 (MOLM-13 cells; [1]): > 1000 nM
- IC50 (MOLM-13 cells; [2]): 10 to 100 nM
- IC50 (MV4;11 cells; [3]): > 1000 nM
- IC50 (MV4;11 cells; [4]): 100 to 1000 nM
